Target: T1, Kinesin-like protein KIF18A (Homo sapiens, UniProt Q8NI77)
T1 sequence (Q8NI77 whole entry): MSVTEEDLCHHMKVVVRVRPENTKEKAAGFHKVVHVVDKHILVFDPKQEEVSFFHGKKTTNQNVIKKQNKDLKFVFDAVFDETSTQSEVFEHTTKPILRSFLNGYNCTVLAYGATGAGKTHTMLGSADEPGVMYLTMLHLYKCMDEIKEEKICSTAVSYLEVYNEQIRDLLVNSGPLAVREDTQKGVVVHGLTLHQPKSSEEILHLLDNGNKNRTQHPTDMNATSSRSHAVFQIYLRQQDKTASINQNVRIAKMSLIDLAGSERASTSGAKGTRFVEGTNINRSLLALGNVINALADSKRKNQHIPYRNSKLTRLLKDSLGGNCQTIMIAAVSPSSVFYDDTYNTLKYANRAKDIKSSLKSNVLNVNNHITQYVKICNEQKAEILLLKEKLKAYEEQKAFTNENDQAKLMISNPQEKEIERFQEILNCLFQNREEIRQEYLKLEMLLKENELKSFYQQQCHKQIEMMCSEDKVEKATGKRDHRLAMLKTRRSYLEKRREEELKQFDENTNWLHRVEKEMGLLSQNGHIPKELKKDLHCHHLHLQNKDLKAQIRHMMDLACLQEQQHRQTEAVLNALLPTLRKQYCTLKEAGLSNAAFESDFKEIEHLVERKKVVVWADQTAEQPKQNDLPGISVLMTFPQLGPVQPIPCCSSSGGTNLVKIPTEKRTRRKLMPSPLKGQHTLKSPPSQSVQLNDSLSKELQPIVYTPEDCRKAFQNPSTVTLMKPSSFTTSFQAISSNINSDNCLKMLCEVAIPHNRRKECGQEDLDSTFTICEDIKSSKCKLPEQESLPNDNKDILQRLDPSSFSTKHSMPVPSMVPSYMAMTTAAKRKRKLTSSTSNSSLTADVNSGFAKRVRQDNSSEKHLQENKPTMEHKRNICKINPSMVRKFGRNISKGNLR
Test: Inhibition of KIF18A Enzyme Activity
Procedure: The ADP-Glo method was used to test the enzymatic activity of KIF18A. The compound was diluted 3-fold with DMSO at a starting concentration of 3000 nM, for a total of ten concentrations, and tested in duplicate. Echo was used to transfer 25 nL of the diluted compound to a 384-well plate, and 2.5 μL of enzyme working solution was added. Plate was centrifuged at 1000 rpm for 1 min, and incubated at 25° C. for 10 min. 2.5 μL of ATP and substrate solution was added to start the reaction, and plate was incubated at 25° C. for 60 min. 4 μL of ADP-Glo solution was added to the 384-well plate, and plate was incubated at 25° C. for 40 min. 8 μL of detection solution was added and incubated at 25° C. for 40 min, and BMG was used to read the […] value. Inhibition rate was calculate according to the following formula: Inhibition rate (%)=(DMSO well−compound well)/(DMSO well−blank control well)×100%. The IC50 value of each compound was analyzed using the nonlinear regression method of XLFit 5.5.0 software. The formula is: Y=Bottom+(Top−Bottom)/(1+10^((Log IC50−X)*HillSlope)).

Row | SMILES | IC50
1 | Cc1cc(NC(=O)c2ccc(NS(=O)(=O)CCO)cc2N2CCC(=C(F)F)CC2)nc(N2CCC(F)(F)CC2)c1F [US20250214965, Compound 79] | < 50 nM
2 | Cc1cc(NC(=O)c2ccc(NS(=O)(=O)[C@H](C)CO)cc2N2CCC(=C(F)F)CC2)nc(N2CCC(F)(F)CC2)c1 [US20250214965, Compound 82] | < 50 nM
3 | Cc1cc(NC(=O)c2ccc(NS(=O)(=O)CCO)cc2N2CCC3(CC2)CC3)nc(N2CCC(F)(F)CC2)c1F [US20250214965, Compound 85] | < 50 nM

The remaining lines, values ahead:

Row | IC50 | SMILES
4 | < 50 nM | Cc1cc(NC(=O)c2ccc(NS(=O)(=O)[C@H](C)CO)cc2N2CCC(=C(F)F)CC2)nc(N2CCC(F)(F)CC2)n1 [US20250214965, Compound 68]
5 | < 100 nM | Cc1cc(NC(=O)c2ccc(NS(=O)(=O)[C@@H](C)CO)cc2N2CCC(=C(F)F)CC2)nc(N2CCC(F)(F)CC2)n1 [US20250214965, Compound 69]
